Measurements from the supplement of paper PMC13207355.

Experiments:
Settings in all cases: exposure time: 72 h
E34 [1] = patient-derived glioblastoma stem cells of proneural subtype; assay: surviving fraction (nuclei count normalised to DMSO); higher = more cells surviving (less toxic)
E31 [2] = patient-derived glioblastoma stem cells of proneural subtype; assay: as above
FT3469 [3] = normal neural stem cell line; assay: as above
E28 [4] = patient-derived glioblastoma stem cells of classical subtype; assay: as above
E13 [5] = patient-derived glioblastoma stem cells of classical subtype; assay: as above
E21 [6] = patient-derived glioblastoma stem cells of mesenchymal subtype; assay: as above
E57 [7] = patient-derived glioblastoma stem cells of mesenchymal subtype; assay: as above
E34 [8] = assay: phenotypic distance (Euclidean, principal components) from DMSO controls (arbitrary units); higher = stronger morphological change
E31 [9] = assay: as above
FT3469 [10] = assay: as above
E28 [11] = assay: as above
E13 [12] = assay: as above
E21 [13] = assay: as above
E57 [14] = assay: as above
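For phenotypic distance (Euclidean, principal components) from DMSO controls in this document: cell Painting imaging in 384-well plates, CellProfiler features reduced to at least 20 principal components, Euclidean distance versus same-plate DMSO vehicle wells (0.1% v/v), median over six images per well.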
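For surviving fraction (nuclei count normalised to DMSO) in this document: nuclei counted by high-content imaging of Hoechst-stained cells in laminin-coated 384-well plates, relative to 0.1% DMSO vehicle wells, with staurosporine as cell-death control.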

NCCNc1ccc(NCCN)c2c1C(=O)c1ccncc1C2=O [Pixantrone dimaleate]
Settings | phenotypic distance | surviving fraction
E13 [5], 4.1 nM | – | 0.883
E13 [5], 12.3 nM | – | 0.94
E13 [5], 37 nM | – | 0.916
E13 [5], 111.1 nM | – | 0.798
E13 [5], 333.3 nM | – | 0.48
E13 [5], 1000 nM | – | 0.399
E13 [5], 3000 nM | – | 0.383
E13 [12], 4.1 nM | 2.19 | –
E13 [12], 12.3 nM | 0.616 | –
E13 [12], 37 nM | 0.772 | –
E13 [12], 111.1 nM | 1.76 | –
E13 [12], 333.3 nM | 4.4 | –
E13 [12], 1000 nM | 5.24 | –
E13 [12], 3000 nM | 4.99 | –
E21 [6], 4.1 nM | – | 0.991
E21 [6], 12.3 nM | – | 0.812
E21 [6], 37 nM | – | 0.904
E21 [6], 111.1 nM | – | 0.733
E21 [6], 333.3 nM | – | 0.619
E21 [6], 1000 nM | – | 0.509
E21 [6], 3000 nM | – | 0.364
E21 [13], 4.1 nM | 0.691 | –
E21 [13], 12.3 nM | 0.873 | –
E21 [13], 37 nM | 0.996 | –
E21 [13], 111.1 nM | 2.7 | –
E21 [13], 333.3 nM | 4.95 | –
E21 [13], 1000 nM | 6 | –
E21 [13], 3000 nM | 5.53 | –
E28 [4], 4.1 nM | – | 0.677
E28 [4], 12.3 nM | – | 0.604
E28 [4], 37 nM | – | 0.524
E28 [4], 111.1 nM | – | 0.418
E28 [4], 333.3 nM | – | 0.349
E28 [4], 1000 nM | – | 0.333
E28 [4], 3000 nM | – | 0.216
E28 [11], 4.1 nM | 2.06 | –
E28 [11], 12.3 nM | 2.09 | –
E28 [11], 37 nM | 2.43 | –
E28 [11], 111.1 nM | 3.32 | –
E28 [11], 333.3 nM | 3.6 | –
E28 [11], 1000 nM | 3.19 | –
E28 [11], 3000 nM | 4.63 | –
E31 [2], 4.1 nM | – | 0.539
E31 [2], 12.3 nM | – | 0.566
E31 [2], 37 nM | – | 0.397
E31 [2], 111.1 nM | – | 0.327
E31 [2], 333.3 nM | – | 0.312
E31 [2], 1000 nM | – | 0.275
E31 [2], 3000 nM | – | 0.142
E31 [9], 4.1 nM | 2.15 | –
E31 [9], 12.3 nM | 1.85 | –
E31 [9], 37 nM | 2.43 | –
E31 [9], 111.1 nM | 3.58 | –
E31 [9], 333.3 nM | 2.86 | –
E31 [9], 1000 nM | 3.07 | –
E31 [9], 3000 nM | 4.34 | –
E34 [1], 4.1 nM | – | 0.839
E34 [1], 12.3 nM | – | 0.771
E34 [1], 37 nM | – | 0.637
E34 [1], 111.1 nM | – | 0.702
E34 [1], 333.3 nM | – | 0.686
E34 [1], 1000 nM | – | 0.588
E34 [1], 3000 nM | – | 0.492
E34 [8], 4.1 nM | 0.885 | –
E34 [8], 12.3 nM | 0.947 | –
E34 [8], 37 nM | 1.52 | –
E34 [8], 111.1 nM | 3.49 | –
E34 [8], 333.3 nM | 3.78 | –
E34 [8], 1000 nM | 3.22 | –
E34 [8], 3000 nM | 1.77 | –
E57 [7], 4.1 nM | – | 0.955
E57 [7], 12.3 nM | – | 0.897
E57 [7], 37 nM | – | 0.79
E57 [7], 111.1 nM | – | 0.555
E57 [7], 333.3 nM | – | 0.346
E57 [7], 1000 nM | – | 0.288
E57 [7], 3000 nM | – | 0.24
E57 [14], 4.1 nM | 0.987 | –
E57 [14], 12.3 nM | 0.95 | –
E57 [14], 37 nM | 1.45 | –
E57 [14], 111.1 nM | 3.37 | –
E57 [14], 333.3 nM | 6.17 | –
E57 [14], 1000 nM | 7.83 | –
E57 [14], 3000 nM | 8.45 | –
FT3469 [3], 4.1 nM | – | 0.869
FT3469 [3], 12.3 nM | – | 0.795
FT3469 [3], 37 nM | – | 0.763
FT3469 [3], 111.1 nM | – | 0.623
FT3469 [3], 333.3 nM | – | 0.666
FT3469 [3], 1000 nM | – | 0.631
FT3469 [3], 3000 nM | – | 0.565
FT3469 [10], 4.1 nM | 1.02 | –
FT3469 [10], 12.3 nM | 1.28 | –
FT3469 [10], 37 nM | 1.5 | –
FT3469 [10], 111.1 nM | 2.03 | –
FT3469 [10], 333.3 nM | 1.76 | –
FT3469 [10], 1000 nM | 1.86 | –
FT3469 [10], 3000 nM | 2.37 | –

CC(=O)O[C@@]12CO[C@@H]1C[C@H](O)[C@@]1(C)C(=O)[C@H](O)C3=C(C)[C@@H](OC(=O)[C@H](O)[C@@H](NC(=O)OC(C)(C)C)c4ccccc4)C[C@@](O)([C@@H](OC(=O)c4ccccc4)[C@H]21)C3(C)C [Docetaxel]
Settings | phenotypic distance | surviving fraction
E13 [5], 4.1 nM | – | 0.244
E13 [5], 12.3 nM | – | 0.245
E13 [5], 37 nM | – | 0.23
E13 [5], 111.1 nM | – | 0.267
E13 [5], 333.3 nM | – | 0.26
E13 [5], 1000 nM | – | 0.245
E13 [5], 3000 nM | – | 0.233
E13 [12], 4.1 nM | 5.48 | –
E13 [12], 12.3 nM | 5.06 | –
E13 [12], 37 nM | 5.13 | –
E13 [12], 111.1 nM | 5.06 | –
E13 [12], 333.3 nM | 5.38 | –
E13 [12], 1000 nM | 5.66 | –
E13 [12], 3000 nM | 5.29 | –
E21 [6], 4.1 nM | – | 0.256
E21 [6], 12.3 nM | – | 0.291
E21 [6], 37 nM | – | 0.273
E21 [6], 111.1 nM | – | 0.267
E21 [6], 333.3 nM | – | 0.324
E21 [6], 1000 nM | – | 0.366
E21 [6], 3000 nM | – | 0.306
E21 [13], 4.1 nM | 5.81 | –
E21 [13], 12.3 nM | 6.42 | –
E21 [13], 37 nM | 6.23 | –
E21 [13], 111.1 nM | 6.28 | –
E21 [13], 333.3 nM | 6.05 | –
E21 [13], 1000 nM | 6.55 | –
E21 [13], 3000 nM | 6.95 | –
E28 [4], 4.1 nM | – | 0.337
E28 [4], 12.3 nM | – | 0.342
E28 [4], 37 nM | – | 0.315
E28 [4], 111.1 nM | – | 0.374
E28 [4], 333.3 nM | – | 0.359
E28 [4], 1000 nM | – | 0.377
E28 [4], 3000 nM | – | 0.43
E28 [11], 4.1 nM | 3.2 | –
E28 [11], 12.3 nM | 3.04 | –
E28 [11], 37 nM | 3.71 | –
E28 [11], 111.1 nM | 4 | –
E28 [11], 333.3 nM | 4.1 | –
E28 [11], 1000 nM | 3.51 | –
E28 [11], 3000 nM | 3.95 | –
E31 [2], 4.1 nM | – | 0.175
E31 [2], 12.3 nM | – | 0.112
E31 [2], 37 nM | – | 0.146
E31 [2], 111.1 nM | – | 0.157
E31 [2], 333.3 nM | – | 0.134
E31 [2], 1000 nM | – | 0.164
E31 [2], 3000 nM | – | 0.2
E31 [9], 4.1 nM | 3.61 | –
E31 [9], 12.3 nM | 4.17 | –
E31 [9], 37 nM | 4.04 | –
E31 [9], 111.1 nM | 3.51 | –
E31 [9], 333.3 nM | 4.45 | –
E31 [9], 1000 nM | 4.14 | –
E31 [9], 3000 nM | 3.26 | –
E34 [1], 4.1 nM | – | 0.43
E34 [1], 12.3 nM | – | 0.452
E34 [1], 37 nM | – | 0.497
E34 [1], 111.1 nM | – | 0.38
E34 [1], 333.3 nM | – | 0.438
E34 [1], 1000 nM | – | 0.423
E34 [1], 3000 nM | – | 0.551
E34 [8], 4.1 nM | 4.14 | –
E34 [8], 12.3 nM | 3.76 | –
E34 [8], 37 nM | 3.17 | –
E34 [8], 111.1 nM | 3.96 | –
E34 [8], 333.3 nM | 3.99 | –
E34 [8], 1000 nM | 3.89 | –
E34 [8], 3000 nM | 3.75 | –
E57 [7], 4.1 nM | – | 0.0834
E57 [7], 12.3 nM | – | 0.0809
E57 [7], 37 nM | – | 0.078
E57 [7], 111.1 nM | – | 0.0677
E57 [7], 333.3 nM | – | 0.0873
E57 [7], 1000 nM | – | 0.0902
E57 [7], 3000 nM | – | 0.109
E57 [14], 4.1 nM | 5.76 | –
E57 [14], 12.3 nM | 5.68 | –
E57 [14], 37 nM | 5.22 | –
E57 [14], 111.1 nM | 5.42 | –
E57 [14], 333.3 nM | 5.4 | –
E57 [14], 1000 nM | 5.4 | –
E57 [14], 3000 nM | 5.26 | –
FT3469 [3], 4.1 nM | – | 0.529
FT3469 [3], 12.3 nM | – | 0.614
FT3469 [3], 37 nM | – | 0.452
FT3469 [3], 111.1 nM | – | 0.513
FT3469 [3], 333.3 nM | – | 0.572
FT3469 [3], 1000 nM | – | 0.497
FT3469 [3], 3000 nM | – | 0.556
FT3469 [10], 4.1 nM | 4.07 | –
FT3469 [10], 12.3 nM | 4.02 | –
FT3469 [10], 37 nM | 3.93 | –
FT3469 [10], 111.1 nM | 4.46 | –
FT3469 [10], 333.3 nM | 4.18 | –
FT3469 [10], 1000 nM | 4.11 | –
FT3469 [10], 3000 nM | 4.57 | –
